PubChem BioAssay (NCI)
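1) Cells in 96-well plates. 2) Compound, 48 h, 5 concentrations. 3) Linear interpolation between surrounding doses. 4) Unreached endpoint = highest concentration. TGI marks complete inhibition of growth.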

Experiments:
Test in all cases: inhibition of tumour cell growth, NCI panel, 48 h
[1] = test system: K-562 leukemia
[2] = test system: HOP-62 NSCLC
[3] = test system: KM12 colon
[4] = test system: NCI/ADR-RES ovarian
[5] = test system: SK-MEL-5 melanoma
[6] = test system: UO-31 renal
[7] = test system: DU-145 prostate
[8] = test system: SNB-19 CNS
[9] = test system: SN12C renal
[10] = test system: COLO 205 colon
[11] = test system: MALME-3M melanoma
[12] = test system: TK-10 renal
[13] = test system: EKVX NSCLC
[14] = test system: OVCAR-8 ovarian
[15] = test system: SF-539 CNS
[16] = test system: IGROV1 ovarian
[17] = test system: U251 CNS
[18] = test system: NCI-H23 lung
[19] = test system: OVCAR-5 ovarian
[20] = test system: ACHN renal
[21] = test system: SF-295 CNS
[22] = test system: HCT-15 colon
[23] = test system: SK-MEL-28 melanoma
[24] = test system: 786-0 renal
[25] = test system: HL-60(TB) leukemia
[26] = test system: SK-OV-3 ovarian
[27] = test system: UACC-62 melanoma
[28] = test system: HCT-116 colon
[29] = test system: NCI-H460 lung
[30] = test system: MDA-MB-231 breast
[31] = test system: NCI-H522 lung
[32] = test system: NCI-H226 lung
[33] = test system: BT-549 breast
[34] = test system: SR leukemia
[35] = test system: OVCAR-4 ovarian
[36] = test system: LOX IMVI melanoma
[37] = test system: A549 NSCLC
[38] = test system: MDA-MB-435
[39] = test system: RPMI-8226 leukemia
[40] = test system: SK-MEL-2 melanoma
[41] = test system: PC-3 prostate
[42] = test system: RXF 393 renal
[43] = test system: M14 melanoma
[44] = test system: A498 renal
[45] = test system: HT29 colon
[46] = test system: OVCAR-3 ovarian
[47] = test system: SF-268 CNS
[48] = test system: HS 578T breast
[49] = test system: MDA-N
[50] = test system: UACC-257 melanoma
[51] = test system: CCRF-CEM leukemia
[52] = test system: HCC-2998 colon
[53] = test system: CAKI-1 renal
[54] = test system: SNB-75 CNS
[55] = test system: MCF7 breast
[56] = test system: SW-620 colon
[57] = test system: T-47D breast
[58] = test system: MOLT-4 leukemia
[59] = test system: HOP-92 NSCLC

Measured: TGI

C=CCOC1=C(OC(C)=O)C(=O)OC1C1COC(C)(C)O1 (stereo not given)
46.2 µM: [22]
> 65.6 µM: [3]
> 60.4 µM: [51]
> 63.7 µM: [57]
33.2 µM: [36]
> 74.8 µM: [15]
> 60.8 µM: [25]
> 88.2 µM: [33]
> 74 µM: [38]
> 58.9 µM: [10]
> 66.4 µM: [55]
34.6 µM: [31]
45.7 µM: [58]
> 59.7 µM: [56]
> 79.4 µM: [6]
> 80.7 µM: [43]
46.6 µM: [20]
57.1 µM: [11]
> 68 µM: [13]
32.1 µM: [35]
> 71.3 µM: [54]
> 56.5 µM: [1] | [42]
9.02 µM: [34]
31.4 µM: [46]
> 57.1 µM: [53]
> 68.7 µM: [9]
> 83.2 µM: [18] | [45]
31.9 µM: [23]
> 60.7 µM: [24]
> 84.6 µM: [14]
> 65.2 µM: [28]
98.9 µM: [40]
not listed: [59]
> 100 µM: all other assays above

O=C(Nc1ccn(C2CCC(CO)O2)c(=O)n1)c1ccccc1 (stereo not given)
not listed: [29] | [35] | [46] | [59]
> 100 µM: all other assays above

Clc1ccc(-c2nc3ccc(Cl)cc3[nH]2)cc1
77.5 µM: [41]
98.4 µM: [29]
53.3 µM: [28]
74.9 µM: [21]
34.9 µM: [10]
79.3 µM: [6]
84.5 µM: [38]
98.1 µM: [3]
90.3 µM: [18]
86.6 µM: [9]
67.4 µM: [40]
75.1 µM: [59]
56.1 µM: [4]
80.1 µM: [31]
85.2 µM: [49]
96.5 µM: [46]
89.1 µM: [52]
69.5 µM: [36]
79.1 µM: [39]
not listed: [19] | [44]
> 100 µM: all other assays above
